# Experimental data as given in patent US20030013711A1, “Chemical derivatives and their application as antitelomerase agents” (priority 2001, published 2003).
# System: A549 cells
# Experiment: Cytotoxicity on human tumor line A549 (neutral red)
# Type: cell-based
# Details: 96 hours incubation
# Protocol: The Cytotoxic Biological Activity on Human Tumor Lines is Determined According to the Following Experimental Protocol:
# The human cell lines KB and A549 are obtained from the ATCC (American Type Culture Collection, Rockville, USA). The A549 cells are cultured as a layer in a culture flask in RPMI 1640 medium, L-glutamine to 2 mM, 200 U/ml penicillin, 200 μg/ml streptomycin and supplemented with 10% heat-inactivated fetal calf serum. The KB cells are cultured as a layer in a culture flask in Dulbelco's medium containing L-glutamine to 2 mM, 200 U/ml penicillin, 200 μg/ml streptomycin and supplemented with 10% heat-inactivated fetal calf serum.
# The cells in exponential growth phase are trypsinized, washed in PBS 1×, and inoculated in 96-well microplates (Costar) at a concentration of 4×10^4 cells/ml for A549 and 1.5×10^4 cells/ml (0.2 ml/well) for KB cells. The cells are then incubated for 96 hours in the presence of variable concentrations of test compounds (10, 1, 0.1 and 0.01 μg/ml, each point being determined in quadruplicate). Sixteen hours before the end of the incubation, neutral red is added to a final concentration of 0.02% in each well. […] The cellular incorporation of the dye, which reflects the cell growth, is evaluated by spectrophotometry at a wavelength of 540 nm for each sample using a Dynatech MR5000 reading machine. […]
smiles,measurement,value
"CSc1nc(Nc2ccc3nc(C)cc(N)c3c2)nc(OC2CCN(C)CC2)n1 [Example 3, N6-[6-(1-methylpiperid-4-yloxy)-4-methylsulfanyl-[1,3,5]triazin-2-yl]-2-methylquinoline-4,6-diamine]",IC50,6 µM
